Measurements from PubChem BioAssay AID248 (DTP/NCI, 2004).
“And” between values parts separate entries of the source, which are not always exact repeats. Equal values may be shown once. Inconclusive results and toxic doses are left out. Rule as the data show it: active = T/C of 150% or more; inactive = T/C below 125%.

Tested on: L1210 leukemia ip in BDF1 mice, survival T/C
Experiment: NCI In Vivo Anticancer Drug Screen. Data for tumor model L1210 Leukemia (intraperitoneal) in B6D2F1 (BDF1) mice
Conditions: endpoint: mean survival time, higher = longer survival
Method in brief: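 Transplantable tumor model; survival measured in treated vs vehicle control mice. Value = treated/control.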

[1] = dose: 12.5 mg/kg/injection, schedule: Q01DX009 (ip), vehicle: saline with Tween-80
[2] = dose: 100.0 mg/kg/injection, schedule: Q01DX009 (ip), vehicle: saline with Tween-80
[3] = dose: 200.0 mg/kg/injection, schedule: Q01DX009 (ip), vehicle: saline with Tween-80
[4] = dose: 50.0 mg/kg/injection, schedule: Q01DX009 (ip), vehicle: saline with Tween-80
[5] = dose: 100.0 mg/kg/injection, schedule: Q04DX003 (ip), vehicle: Klucel (hydroxypropylcellulose) (HPC)
[6] = dose: 200.0 mg/kg/injection, schedule: Q04DX003 (ip), vehicle: Klucel (hydroxypropylcellulose) (HPC)
[7] = dose: 400.0 mg/kg/injection, schedule: Q04DX003 (ip), vehicle: Klucel (hydroxypropylcellulose) (HPC)
[8] = dose: 100.0 mg/kg/injection, schedule: Q04DX003 (ip), vehicle: saline
[9] = dose: 200.0 mg/kg/injection, schedule: Q04DX003 (ip), vehicle: saline
[10] = dose: 100.0 mg/kg/injection, schedule: Q01DX009 (ip), vehicle: Klucel (hydroxypropylcellulose) (HPC)
[11] = dose: 200.0 mg/kg/injection, schedule: Q01DX009 (ip), vehicle: Klucel (hydroxypropylcellulose) (HPC)
[12] = dose: 400.0 mg/kg/injection, schedule: Q01DX009 (ip), vehicle: Klucel (hydroxypropylcellulose) (HPC)

Measured: T/C

C1COC(NC2CC3CCC2C3)=N1 (configuration not stated)
inactive: dose: 6.25 mg/kg/injection, schedule: Q01DX009 (ip), vehicle: saline with Tween-80 94 % of control | dose: 6.25 mg/kg/injection, schedule: Q04DX003 (ip), vehicle: saline with Tween-80 94 % of control | [1] 104 % of control | dose: 12.5 mg/kg/injection, schedule: Q04DX003 (ip), vehicle: saline with Tween-80 91 % of control | dose: 25.0 mg/kg/injection, schedule: Q01DX009 (ip), vehicle: saline with Tween-80 100 % of control | dose: 25.0 mg/kg/injection, schedule: Q04DX003 (ip), vehicle: saline with Tween-80 97 % of control

O=C(O)c1cccc2ccccc12
inactive: [2] 89 % of control | [3] 100 % of control

CN(C)C=Nc1ccc(C(=O)OCCN(C)C)cc1
inactive: [4] 115 % of control | [2] 97 % of control | [3] 106 % of control

CN(C)c1ccc2[nH]c(=O)c3ccccc3c2c1
inactive: dose: 75.0 mg/kg/injection, schedule: Q01DX001 (ip), vehicle: carboxymethylcellulose (CMC) 101 % of control

CC(=O)NCc1ccccc1
inactive: [2] 97 % of control | [5] 95 % of control | [3] 92 % of control | [6] 100 % of control | dose: 400.0 mg/kg/injection, schedule: Q01DX009 (ip), vehicle: saline with Tween-80 100 % of control | [7] 100 % of control

COc1ccc(C(=O)/C=C/c2ccccc2)c(O)c1
inactive: dose: 50.0 mg/kg/injection, schedule: Q01DX001 (ip), vehicle: saline 98 % of control | dose: 100.0 mg/kg/injection, schedule: Q01DX001 (ip), vehicle: saline 102 % of control | dose: 200.0 mg/kg/injection, schedule: Q01DX001 (ip), vehicle: saline 102 % of control | dose: 400.0 mg/kg/injection, schedule: Q01DX001 (ip), vehicle: saline 98 % of control

CCCCC1=NCCc2c1cc1c([nH]c3ccccc31)c2C
inactive: [8] 96 % of control | [9] 95 % of control

O=C(C[P+](c1ccccc1)(c1ccccc1)c1ccccc1)c1ccc(Br)cc1
inactive: dose: 50.0 mg/kg/injection, schedule: Q01DX001 (ip), vehicle: other 100 % of control | dose: 100.0 mg/kg/injection, schedule: Q01DX001 (ip), vehicle: other 87 % of control | dose: 200.0 mg/kg/injection, schedule: Q01DX001 (ip), vehicle: other 103 % of control | dose: 400.0 mg/kg/injection, schedule: Q01DX001 (ip), vehicle: other 105 % of control

O=NN(CCCl)C(=O)Nc1ccccc1NC(=O)N(CCCl)N=O
inactive: dose: 4.0 mg/kg/injection, schedule: Q01DX001 (ip), vehicle: carboxymethylcellulose (CMC) 122 % of control

CC1(C)COC(c2ccccc2Br)=N1
inactive: [10] 107 % of control | [5] 104 % of control and 105 % of control | [11] 104 % of control | [6] 97 % of control and 105 % of control | [12] 93 % of control | [7] 93 % of control and 100 % of control

OCCC#CCCOC1CCCCO1 (configuration not stated)
inactive: dose: 100.0 mg/kg/injection, schedule: Q04DX002 (ip), vehicle: saline with Tween-80 93 % of control | dose: 200.0 mg/kg/injection, schedule: Q04DX002 (ip), vehicle: saline with Tween-80 103 % of control | dose: 400.0 mg/kg/injection, schedule: Q04DX002 (ip), vehicle: saline with Tween-80 103 % of control

CSCCNC(=O)C(=O)NCCSC
inactive: dose: 100.0 mg/kg/injection, schedule: Q04DX002 (ip), vehicle: other 95 % of control | dose: 200.0 mg/kg/injection, schedule: Q04DX002 (ip), vehicle: other 88 % of control | dose: 400.0 mg/kg/injection, schedule: Q04DX002 (ip), vehicle: other 98 % of control

CN1C(=O)N(C)C(=O)C(Cc2ccccc2)(Cc2ccccc2)C1=O
inactive: dose: 10.0 mg/kg/injection, schedule: Q01DX001 (ip), vehicle: saline 109 % of control | dose: 20.0 mg/kg/injection, schedule: Q01DX001 (ip), vehicle: saline 105 % of control

Clc1ccc(/C=N\c2nn[nH]n2)c(Cl)c1 (tested in a mixture with another compound)
inactive: [8] 89 % of control | [9] 89 % of control | dose: 400.0 mg/kg/injection, schedule: Q04DX003 (ip), vehicle: saline 98 % of control

CCOC(=O)C(=O)c1c(C)[nH]c2ccccc12
inactive: [10] 96 % of control | [5] 103 % of control | [11] 92 % of control | [6] 95 % of control | [12] 94 % of control | [7] 97 % of control

O=S(=O)(O)c1ccc(Cl)c(Cl)c1
inactive: dose: 100.0 mg/kg/injection, schedule: Q04DX002 (ip), vehicle: saline 107 % of control | dose: 200.0 mg/kg/injection, schedule: Q04DX002 (ip), vehicle: saline 100 % of control | dose: 400.0 mg/kg/injection, schedule: Q04DX002 (ip), vehicle: saline 107 % of control

COP(=O)(OC)Oc1c(Cl)c(OP(=O)(OC)OC)c(Cl)c(OP(=O)(OC)OC)c1Cl
inactive: dose: 100.0 mg/kg/injection, schedule: Q04DX002 (ip), vehicle: Klucel (hydroxypropylcellulose) (HPC) 115 % of control | dose: 200.0 mg/kg/injection, schedule: Q04DX002 (ip), vehicle: Klucel (hydroxypropylcellulose) (HPC) 100 % of control | dose: 400.0 mg/kg/injection, schedule: Q04DX002 (ip), vehicle: Klucel (hydroxypropylcellulose) (HPC) 86 % of control

COC1(c2ccco2)OC1(C)C (configuration not stated)
inactive: dose: 5.0 mg/kg/injection, schedule: Q01DX009 (ip), vehicle: saline with Tween-80 94 % of control | dose: 5.0 mg/kg/injection, schedule: Q04DX003 (ip), vehicle: saline with Tween-80 96 % of control | dose: 10.0 mg/kg/injection, schedule: Q01DX009 (ip), vehicle: saline with Tween-80 97 % of control | dose: 10.0 mg/kg/injection, schedule: Q04DX003 (ip), vehicle: saline with Tween-80 102 % of control | dose: 20.0 mg/kg/injection, schedule: Q01DX009 (ip), vehicle: saline with Tween-80 116 % of control | dose: 20.0 mg/kg/injection, schedule: Q04DX003 (ip), vehicle: saline with Tween-80 98 % of control

Clc1ncnc2c1nnn2/N=C/c1ccccc1
inactive: dose: 15.0 mg/kg/injection, schedule: Q01DX Z (ip), vehicle: carboxymethylcellulose (CMC) 95 % of control | dose: 20.0 mg/kg/injection, schedule: Q01DX Z (ip), vehicle: carboxymethylcellulose (CMC) 91 % of control

C[C@]12CCCC[C@@H]1CC[C@@H]1[C@@H]2[C@@H](O)C[C@]2(C)[C@@H](O)CC[C@@H]12
inactive: [4] 98 % of control | [2] 90 % of control | [3] 95 % of control

CC(C)CCCC(C)C1CCC2C3CC=C4CC(OC(=O)Nc5ccc(S(=O)(=O)c6ccc(F)cc6)cc5)CCC4(C)C3CCC12C (configuration not stated)
inactive: dose: 100.0 mg/kg/injection, schedule: Q01DX001 (sc), vehicle: steriod suspending solution 89 % of control | dose: 200.0 mg/kg/injection, schedule: Q01DX001 (sc), vehicle: steriod suspending solution 92 % of control | dose: 400.0 mg/kg/injection, schedule: Q01DX001 (sc), vehicle: steriod suspending solution 100 % of control

Cc1cc(N(CCCOS(C)(=O)=O)CCCOS(C)(=O)=O)ccc1C=Nc1ccc(-c2nc(Cc3ccccc3)sc2C)cc1
inactive: [2] 96 % of control | [3] 98 % of control

CCCCCCCCc1ccc(NC(N)=S)cc1
inactive: dose: 3.12 mg/kg/injection, schedule: Q01DX009 (ip), vehicle: saline 104 % of control | dose: 6.25 mg/kg/injection, schedule: Q01DX009 (ip), vehicle: saline 107 % of control | [1] 92 % of control | dose: 12.5 mg/kg/injection, schedule: Q01DX009 (ip), vehicle: saline 111 % of control

CC(=O)CC(C)=Nc1cccc(Cl)c1
inactive: dose: 100.0 mg/kg/injection, schedule: Q01DX001 (ip), vehicle: Klucel (hydroxypropylcellulose) (HPC) 106 % of control | [10] 92 % of control | dose: 200.0 mg/kg/injection, schedule: Q01DX001 (ip), vehicle: Klucel (hydroxypropylcellulose) (HPC) 103 % of control | [11] 108 % of control | dose: 400.0 mg/kg/injection, schedule: Q01DX001 (ip), vehicle: Klucel (hydroxypropylcellulose) (HPC) 100 % of control | [12] 94 % of control

Cc1cc(C)cc(C(O)(C(=O)O)c2ccccc2)c1 (configuration not stated)
inactive: dose: 75.0 mg/kg/injection, schedule: Q01DX001 (ip), vehicle: other 103 % of control | dose: 150.0 mg/kg/injection, schedule: Q01DX001 (ip), vehicle: other 103 % of control | dose: 300.0 mg/kg/injection, schedule: Q01DX001 (ip), vehicle: other 106 % of control
